How the values were obtained:
Assay type in all cases: cell-based, human
[1] = system: mesothelioma (H226) cancer cell line; assay: 72 hr ATP luminescence cell proliferation inhibition assay, H226
Description: (§1) Proliferation inhibition was measured using a 72 hr ATP luminescence assay (Cheng et al., U.S. Pat. No. 8,394,922 B2 (2013)). The antiproliferative effects are reported as IC50's, i.e., the concentration of compound that produces a 50% inhibitory effect on cell proliferation.

[2] = system: gastric (stomach) cancer (N87) cell line; assay: 72 hr ATP luminescence cell proliferation inhibition assay, N87; settings: N87 cells
Description: as §1

[3] = system: colon cancer (HCT116) cell line; assay: 72 hr ATP luminescence cell proliferation inhibition assay, HCT116
Description: as §1

[4] = system: ovarian cancer (OVCAR3) cell line; assay: 72 hr ATP luminescence cell proliferation inhibition assay, OVCAR3
Description: as §1

COc1cc2c(cc1OCCCC(=O)Nc1ccc(C(=O)Nc3ccccc3)cc1)N=C[C@@H]1Cc3ccccc3CN1C2=O [(Ib-01)]
IC50 ([1]; H226 cells): 1.2 nM | IC50 [2]: 0.65 nM | IC50 ([3]; HCT116 cells): 0.73 nM | IC50 ([4]; OVCAR3 cells): 0.38 nM

COc1cc2c(cc1OCCCC(=O)Nc1ccccc1C(=O)Nc1ccccc1)N=C[C@@H]1Cc3ccccc3CN1C2=O [(Ib-02)]
IC50 ([1]; H226 cells): < 250 nM | IC50 [2]: 93 nM | IC50 ([3]; HCT116 cells): < 250 nM | IC50 ([4]; OVCAR3 cells): 140 nM

COc1cc2c(cc1OCCCC(=O)Nc1cccc(C(=O)Nc3ccccc3)c1)N=C[C@@H]1Cc3ccccc3CN1C2=O [(Ib-03)]
IC50 ([1]; H226 cells): 9.4 nM | IC50 [2]: 2.4 nM | IC50 ([3]; HCT116 cells): 6.9 nM | IC50 ([4]; OVCAR3 cells): 3.1 nM

COc1cc2c(cc1OCCCC(=O)Nc1ncc(C(=O)Nc3ccccc3)s1)N=C[C@@H]1Cc3ccccc3CN1C2=O [(Ib-04)]
IC50 ([1]; H226 cells): 5.6 nM | IC50 [2]: 2.6 nM | IC50 ([3]; HCT116 cells): 2.7 nM | IC50 ([4]; OVCAR3 cells): 0.78 nM

COc1cc2c(cc1OCCCC(=O)Nc1nc(C(=O)Nc3ccccc3)cs1)N=C[C@@H]1Cc3ccccc3CN1C2=O [(Ib-05)]
IC50 ([1]; H226 cells): 0.23 nM | IC50 [2]: 0.11 nM | IC50 ([3]; HCT116 cells): 0.12 nM | IC50 ([4]; OVCAR3 cells): 0.27 nM

COc1cc2c(cc1OCCCC(=O)Nc1cc(C(=O)Nc3ccc(-n4cnc(C)n4)nc3)n(C)c1)N=C[C@@H]1Cc3ccccc3CN1C2=O [(Ib-06)]
IC50 ([1]; H226 cells): < 0.004 nM | IC50 [2]: 0.009 nM | IC50 ([3]; HCT116 cells): 0.008 nM | IC50 ([4]; OVCAR3 cells): 0.031 nM

COc1cc2c(cc1OCCCC(=O)Nc1cc(C(=O)Nc3ccc(-n4cnc(Cl)c4)nc3)n(C)c1)N=C[C@@H]1Cc3ccccc3CN1C2=O [(Ib-07)]
IC50 ([1]; H226 cells): 0.02 nM | IC50 [2]: 0.073 nM | IC50 ([3]; HCT116 cells): 0.018 nM | IC50 ([4]; OVCAR3 cells): 0.024 nM

COc1cc2c(cc1OCCCC(=O)Nc1cc(C(=O)Nc3ccc(-n4cnc(C)n4)c(F)c3)n(C)c1)N=C[C@@H]1Cc3ccccc3CN1C2=O [(Ib-08)]
IC50 ([1]; H226 cells): 0.007 nM | IC50 [2]: 0.006 nM | IC50 ([3]; HCT116 cells): < 0.004 nM | IC50 ([4]; OVCAR3 cells): 0.013 nM

COc1cc2c(cc1OCCCC(=O)Nc1cc(C(=O)Nc3ccc(-n4cnc(C)n4)c(C(F)F)c3)n(C)c1)N=C[C@@H]1Cc3ccccc3CN1C2=O [(Ib-09)]
IC50 ([1]; H226 cells): 0.05 nM | IC50 [2]: 0.035 nM | IC50 ([3]; HCT116 cells): 0.039 nM | IC50 ([4]; OVCAR3 cells): 0.12 nM

COc1cc2c(cc1OCCCC(=O)Nc1cc(C(=O)Nc3ccc(-n4cnc(C(F)F)n4)c(OC)c3)n(C)c1)N=C[C@@H]1Cc3ccccc3CN1C2=O [(Ib-10]
IC50 ([1]; H226 cells): 0.018 nM | IC50 [2]: 0.026 nM | IC50 ([3]; HCT116 cells): 0.014 nM | IC50 ([4]; OVCAR3 cells): 0.037 nM

COc1cc2c(cc1OCCCC(=O)Nc1cc(C(=O)Nc3ccc(-n4cnc(C)n4)c(OCC(F)F)c3)n(C)c1)N=C[C@@H]1Cc3ccccc3CN1C2=O [(Ib-11)]
IC50 ([1]; H226 cells): 0.98 nM | IC50 [2]: 0.12 nM | IC50 ([3]; HCT116 cells): 0.026 nM | IC50 ([4]; OVCAR3 cells): 0.1 nM

COc1cc2c(cc1OCCCC(=O)Nc1cc(C(=O)Nc3ccc(-n4cnc(C)n4)c(OC(F)F)c3)n(C)c1)N=C[C@@H]1Cc3ccccc3CN1C2=O [(Ib-12)]
IC50 ([1]; H226 cells): 0.059 nM | IC50 [2]: 0.027 nM | IC50 ([3]; HCT116 cells): 0.023 nM | IC50 ([4]; OVCAR3 cells): 0.074 nM

COc1cc2c(cc1OCCCC(=O)Nc1cc(C(=O)Nc3ccc(-n4cnc(C)n4)c(OC)c3)n(C)c1)N=C[C@@H]1Cc3ccccc3CN1C2=O [(Ib-13)]
IC50 ([1]; Homo sapiens, NCI-H226, H226 cells): 0.039 nM | IC50 ([2]; Homo sapiens): 0.14 nM | IC50 ([3]; Homo sapiens, HCT-116, HCT116 cells): 0.036 nM | IC50 ([4]; Homo sapiens, OVCAR-3, OVCAR3 cells): 0.17 nM

COc1cc2c(cc1OCCCC(=O)Nc1cc(C(=O)Nc3ccc(-c4cccc(C(=O)OC(C)C)c4)cc3)n(C)c1)N=C[C@@H]1Cc3ccccc3CN1C2=O [(Ib-14)]
IC50 ([1]; H226 cells): 0.67 nM | IC50 [2]: 0.049 nM | IC50 ([3]; HCT116 cells): 0.07 nM | IC50 ([4]; OVCAR3 cells): 0.18 nM

COc1ccc(-c2ccc(NC(=O)c3cc(NC(=O)CCCOc4cc5c(cc4OC)C(=O)N4Cc6ccccc6C[C@H]4C=N5)cn3C)cc2)cc1 [(Ib-15)]
IC50 ([1]; H226 cells): < 0.004 nM | IC50 [2]: < 0.004 nM | IC50 ([3]; HCT116 cells): 0.002 nM | IC50 ([4]; OVCAR3 cells): < 0.004 nM

COc1cc2c(cc1OCCCC(=O)Nc1cc(C(=O)Nc3ccc(-n4cnc(C)n4)cc3)n(C)c1)N=C[C@@H]1Cc3ccccc3CN1C2=O [(Ib-16)]
IC50 ([1]; H226 cells): < 0.004 nM | IC50 [2]: < 0.004 nM | IC50 ([3]; HCT116 cells): < 0.004 nM | IC50 ([4]; OVCAR3 cells): 0.12 nM

COc1cc2c(cc1OCCCC(=O)Nc1cc(C(=O)Nc3ccc(-n4cncn4)cc3)n(C)c1)N=C[C@@H]1Cc3ccccc3CN1C2=O [(Ib-17)]
IC50 ([1]; H226 cells): < 0.004 nM | IC50 [2]: 0.009 nM | IC50 ([3]; HCT116 cells): 0.011 nM | IC50 ([4]; OVCAR3 cells): 0.028 nM

COc1cc2c(cc1OCCCC(=O)Nc1cc(C(=O)Nc3ccc(-n4cnc(C(F)F)c4)c(OC)c3)n(C)c1)N=C[C@@H]1Cc3ccccc3CN1C2=O [(Ib-18)]
IC50 ([1]; H226 cells): 0.11 nM | IC50 [2]: 0.052 nM | IC50 ([3]; HCT116 cells): 0.055 nM | IC50 ([4]; OVCAR3 cells): 0.2 nM

COc1cc2c(cc1OCCCC(=O)Nc1cc(C(=O)Nc3ccc(-n4cnc(Cl)c4)c(OC)c3)n(C)c1)N=C[C@@H]1Cc3ccccc3CN1C2=O [(Ib-19)]
IC50 ([1]; H226 cells): 0.11 nM | IC50 [2]: 0.045 nM | IC50 ([3]; HCT116 cells): 0.038 nM | IC50 ([4]; OVCAR3 cells): 0.23 nM

COc1cc2c(cc1OCCCC(=O)Nc1cc(C(=O)Nc3ccc(-n4cnc(Cl)c4)c(F)c3)n(C)c1)N=C[C@@H]1Cc3ccccc3CN1C2=O [(Ib-20)]
IC50 ([1]; H226 cells): 0.031 nM | IC50 [2]: 0.014 nM | IC50 ([3]; HCT116 cells): 0.027 nM | IC50 ([4]; OVCAR3 cells): 0.1 nM

COc1cc2c(cc1OCCCC(=O)Nc1cc(C(=O)Nc3ccc(-n4cnc(C)c4)c(OC)c3)n(C)c1)N=C[C@@H]1Cc3ccccc3CN1C2=O [(Ib-21)]
IC50 ([1]; H226 cells): 0.19 nM | IC50 [2]: 0.091 nM | IC50 ([3]; HCT116 cells): 0.057 nM | IC50 ([4]; OVCAR3 cells): 0.35 nM

COc1cc2c(cc1OCCCC(=O)Nc1cc(C(=O)Nc3ccc(-n4ccnc4)cc3)n(C)c1)N=C[C@@H]1Cc3ccccc3CN1C2=O [(Ib-22)]
IC50 ([1]; H226 cells): 0.18 nM | IC50 [2]: 0.24 nM | IC50 ([3]; HCT116 cells): 0.088 nM | IC50 ([4]; OVCAR3 cells): 0.91 nM

COc1cc2c(cc1OCCCC(=O)Nc1cc(C(=O)Nc3ccc(-c4cocn4)cc3)n(C)c1)N=C[C@@H]1Cc3ccccc3CN1C2=O [(Ib-23)]
IC50 ([1]; H226 cells): 0.036 nM | IC50 [2]: 0.014 nM | IC50 ([3]; HCT116 cells): 0.007 nM | IC50 ([4]; OVCAR3 cells): 0.022 nM

COc1cc2c(cc1OCCCC(=O)Nc1cc(C(=O)Nc3cnn(-c4ccccc4)c3)n(C)c1)N=C[C@@H]1Cc3ccccc3CN1C2=O [(Ib-24)]
IC50 ([1]; H226 cells): 0.053 nM | IC50 [2]: 0.074 nM | IC50 ([3]; HCT116 cells): 0.008 nM | IC50 ([4]; OVCAR3 cells): 0.16 nM

COC(=O)c1nc(-c2ccc(NC(=O)c3cc(NC(=O)CCCOc4cc5c(cc4OC)C(=O)N4Cc6ccccc6C[C@H]4C=N5)cn3C)cc2)cn1C [(Ib-25)]
IC50 ([1]; H226 cells): 0.15 nM | IC50 [2]: 0.084 nM | IC50 ([3]; HCT116 cells): 0.057 nM | IC50 ([4]; OVCAR3 cells): 0.35 nM

COc1cc2c(cc1OCCCC(=O)Nc1cc(C(=O)Nc3ccc(-n4cnc(C)n4)c(O)c3)n(C)c1)N=C[C@@H]1Cc3ccccc3CN1C2=O [(Ib-26)]
IC50 ([1]; H226 cells): < 0.004 nM | IC50 [2]: < 0.004 nM | IC50 ([3]; HCT116 cells): 0.025 nM | IC50 ([4]; OVCAR3 cells): 0.44 nM

C=CCOc1cc(NC(=O)c2cc(NC(=O)CCCOc3cc4c(cc3OC)C(=O)N3Cc5ccccc5C[C@H]3C=N4)cn2C)ccc1-n1cnc(C)n1 [(Ib-27)]
IC50 ([1]; H226 cells): 0.067 nM | IC50 [2]: 0.021 nM | IC50 ([3]; HCT116 cells): 0.02 nM | IC50 ([4]; OVCAR3 cells): 0.15 nM

COc1cc2c(cc1OCCCC(=O)Nc1cc(C(=O)Nc3cc(C)c(-n4cncn4)c(C)c3)n(C)c1)N=C[C@@H]1Cc3ccccc3CN1C2=O [(Ib-28)]
IC50 ([1]; H226 cells): 0.72 nM | IC50 [2]: 0.18 nM | IC50 ([3]; HCT116 cells): 0.18 nM | IC50 ([4]; OVCAR3 cells): 0.4 nM

COc1cc2c(cc1OCCCC(=O)Nc1cc(C(=O)Nc3ccc(-n4cncn4)c(OC)c3)n(C)c1)N=C[C@@H]1Cc3ccccc3CN1C2=O [(Ib-29)]
IC50 ([1]; H226 cells): 0.1 nM | IC50 [2]: 0.042 nM | IC50 ([3]; HCT116 cells): 0.041 nM | IC50 ([4]; OVCAR3 cells): 0.16 nM

COc1cc2c(cc1OCCCC(=O)Nc1cc(C(=O)Nc3ccc(-c4ncc[nH]4)cc3)n(C)c1)N=C[C@@H]1Cc3ccccc3CN1C2=O [(Ib-30)]
IC50 ([1]; H226 cells): 0.66 nM | IC50 [2]: 0.37 nM | IC50 ([3]; HCT116 cells): 0.1 nM | IC50 ([4]; OVCAR3 cells): 0.76 nM

COc1cc2c(cc1OCCCC(=O)Nc1cc(C(=O)Nc3ccc4c(c3)OCc3nncn3-4)n(C)c1)N=C[C@@H]1Cc3ccccc3CN1C2=O [(Ib-31)]
IC50 ([1]; H226 cells): 0.28 nM | IC50 [2]: 0.23 nM | IC50 ([3]; HCT116 cells): 0.078 nM | IC50 ([4]; OVCAR3 cells): 0.94 nM

COc1cc2c(cc1OCCCC(=O)Nc1cc(C(=O)Nc3ccc4c(c3)-n3cnnc3CO4)n(C)c1)N=C[C@@H]1Cc3ccccc3CN1C2=O [(Ib-32)]
IC50 ([1]; H226 cells): 3.1 nM | IC50 [2]: 0.41 nM | IC50 ([3]; HCT116 cells): 0.3 nM | IC50 ([4]; OVCAR3 cells): 1.6 nM

Source: patent publication US10398783B2, “Antiproliferative compounds and conjugates made therefrom” (BRISTOL-MYERS SQUIBB COMPANY, priority 2016, dated 2019)
